Measurements reported in patent publication US20160270687A1, “System and Method for Quantitative Magnetic Resonance (MR) Analysis Using T1 Mapping” (priority 2013, published 2016).
One block for each compound: values may come before it. Peptide text beside a SMILES is read from it. * marks the point of attachment. X1 = O=C(O)CN1CCN(CC(=O)O)CCN(CC(=O)NCCCn2cc(COCC(COCc3cn(CCCNC(=O)CN4CCN(CC(=O)O)CCN(CC(=O)O)CCN(CC(=O)O)CC4)nn3)(COCc3cn(CCCNC(=O)CN4CCN(CC(=O)O)CCN(CC(=O)O)CCN(CC(=O)O)CC4)nn3)NC(=O)CCN3C(=O)CC(*)C3=O)nn2)CCN(CC(=O)O)CC1

Assays:
[1] = tested on: LN-229 flank tumors; assay: Dynamic quantitative T1 mapping and Gd concentration maps of flank tumors
Protocol: Representative bright-field images of GFP-positive LN-229 flank tumors for animals where 0.2 mmol Gd/kg of Optimark™, scrambled-Tris-(Gd-DOTA)3, or SBK2-Tris-(Gd-DOTA)3 was administered are presented in row 1210 in columns 1202, 1204, and 1206 respectively. GFP fluorescence images of LN-229 tumor cells for each of the three contrast agents are presented in row 1220 in columns 1202, 1204, and 1206 respectively. T2 high resolution images are presented in row 1230 in columns 1202, 1204, and 1206 respectively. T2 low-resolution images with a region of interest (ROI) illustrated by a dashed line are presented in row 1240 in columns 1202, 1204, and 1206 respectively show the tumor area used for T1 map quantification. Axial T1-weighted images of LN-229 flank tumor at baseline or pre-agent (e.g., before injection of contrast agents) are shown in row 1250. Axial T1-weighted images of LN-229 flank tumor at time of maximum contrast (e.g., 15 minutes) following intravenous injection are shown in row 1260.
High-resolution T2-weighted images were obtained for each mouse using a RARE (Rapid Acquisition with Relaxation Enhancement) acquisition (TR/TE=5000/40 ms, 20 slices, resolution=0.117×0.117×0.5 mm) to select the imaging slice for the dynamic T1 mapping acquisition. The dynamic T1 data were then acquired using a snapshot GRE (Gradient Recalled Echo) acquisition with inversion recovery preparation (10 inversion times [263, 775, 1287, 1799, 2311, 2823, 3335, 3847, 4359, and 4871 ms], GRE imaging readout TR/TE=4.0 ms/1.3 ms, flip angle=10 degrees, resolution=0.234×0.234×1 mm, Field of View (FOV)=30×30 mm, and 10 signal averages). The total acquisition time for each T1 mapping scan was 2.5 min. After five baseline/pre-agent T1 mapping scans, Optimark™, the targeted SBK2-Tris-(Gd-DOTA)3 agent, or the non-targeted scrambled-Tris-(Gd-DOTA)3 control was injected at a dose of 0.2 mmol of Gd/kg followed by a 50 μL flush of saline. T1 maps were then consecutively acquired every 2.5 min over 62.5 min.
The MRI data were imported into MATLAB enabling estimation of both pixel-wise T1 relaxation time maps as well as mean intra-tumoral T1 changes using an ROI analysis. The T1 maps were obtained from the T1 mapping acquisition mono-exponential models. To compare the multiple imaging agents, the pre and post-agent T1 maps were then used to calculate maps of percent change in T1, which is directly related to the concentration of each agent within the tumor. To calculate Gd concentrations, T1 relaxivity constants determined at 9.4 T were used along with T1 map values.
As the T1 maps and T2-weighted images were co-registered, the ROI analysis was performed by outlining the ROI on the T2-weighted images. The same ROI was then applied to all of the T1 maps and the average value in the ROI was calculated as a measure of tumor uptake of each imaging agent. Plots of normalized T1 values in the tumor were calculated by dividing the post-agent injection T1 maps by an average of the 5 baseline (pre-agent injection) tumor T1 values. This normalization was performed to limit the effects of variation in the pre-contrast tumor T1 values on the comparison of the molecular imaging agents.
As an imaging marker for contrast agent retention, a slope analysis was performed on the normalized T1 values. Slopes were calculated for Optimark™, scrambled-Tris-(Gd-DOTA)3, and SBK2-Tris-(Gd-DOTA)3 by using all of the mean tumor T1 values from 15 minutes to 60 minutes following agent administration. For each pair of contrast agents, normalized T1 map values at each time point, along with the slopes of post-agent T1 curves were evaluated for statistical significance using a two-tailed Student's t-test, assuming statistical significance at p<0.05.

[2] = tested on: LN-229 flank tumor; format: in vivo, mice
Protocol: FIG. 8 illustrates that the SBK2 based specific molecular imaging agent improves the enhancement of LN-229 tumors. FIG. 8 illustrates representative T1-weighted axial 2D gradient images of LN-229 flank tumor-bearing mice before (pre-injection) (column 840) and at 1 minute (column 842), 5 minutes (column 844), 10 minutes (column 846), 20 minutes (column 848), and 30 minutes (column 850) after the intravenous injection of ProHance™ (row 810), scrambled Tris-(Gd-DOTA)3 (row 820), or SBK2-Tris-(Gd-DOTA)3 (row 830) at 0.1 mmol Gd/kg. FIG. 8 also illustrates axial 2D gradient images heat map overlays on the tumor to indicate contrast intensity. FIG. 8 illustrates heat maps with overlays for T1-weighted axial 2D gradient images of LN-229 flank tumor-bearing mice before (pre-injection) (column 882) and at 1 minute (column 884), 5 minutes (column 886), 10 minutes (column 888), 20 minutes (column 890), and 30 minutes (column 892) after the intravenous injection of ProHance™ (row 860), scrambled Tris-(Gd-DOTA)3 (row 870), or SBK2-Tris-(Gd-DOTA)3 (row 880) at 0.1 mmol Gd/kg.
The SBK2 based specific molecular imaging agent was developed as a diagnostic imaging tool. To function as an imaging tool, SBK2 was conjugated to a Gd chelate [SBK2-Tris-(Gd-DOTA)3] to generate an MR-detectable molecular imaging agent. The ability of SBK2-Tris-(Gd-DOTA)3 to function as a contrast agent was compared to a macrocyclic gadolinium chelate (Gadoteridol, ProHance™) and to a scrambled molecular imaging agent linked to gadolinium [scrambled Tris-(Gd-DOTA)3]. SBK2-Tris-(Gd-DOTA)3 labeled human glioma tumors with a high level of contrast persisting for two hours. […] SBK2-Tris-(Gd-DOTA)3 labeling of PTPμ extracellular fragment retained in the tumor microenvironment is a more specific MR molecular imaging agent than a nonspecific gadolinium chelate.
FIG. 9 illustrates quantitation of LN-229 flank tumor enhancement following administration of control or targeted contrast agents in xenograft mice. Graphs 900 and 910 illustrate dose-response plots of LN-229 flank tumor contrast to noise ratio (CNR) with ProHance™ or SBK2-Tris-(Gd-DOTA)3 respectively administered at 0.03 mmol Gd/kg or 0.1 mmol Gd/kg.
Data is shown as means±SEM. […] At 60 to 120 minutes post-injection, the ProHance™ cleared more rapidly than SBK2-Tris-(Gd-DOTA)3 resulting in greater than 110% increase in SBK2-Tris-(Gd-DOTA)3 tumor CNR compared with ProHance™ (P<0.001). The SBK2-Tris-(Gd-DOTA)3 tumor CNR was approximately 53% greater than the scrambled Tris-(Gd-DOTA)3 tumor CNR at 60 to 90 minutes (P<0.001).

[3] = tested on: orthotopic Gli36Δ5 glioma tumors; assay: Quantitative T1 mapping of orthotopic brain tumors with Optimark; settings: for time of peak contrast following the injection: 0.1 mmol/kg
Text: This is because T1 mapping is a quantitative MR imaging method that yields the absolute T1 relaxation values as opposed to the relative signal intensity values in T1-weighted images.
High-resolution T2-weighted MR images were acquired to localize the tumor and enable identification of the largest cross-section of tumor on MRI.
Graph 2300 illustrates mean Gd concentrations in the tumor before and after intravenous administration of 0.1 (line 2310) or 0.2 mmol/kg (line 2320) Optimark™ in cohorts of nu/nu athymic mice bearing orthotopic glioma tumors. Data is plotted as means+/−standard error. The mean tumor Gd concentration was measured at baseline or pre-agent and after contrast agent injection was measured every 2.5 minutes for 30 minutes.

Compound: CC(C)C[C@H](NC(=O)[C@@H](NC(=O)[C@H](CC(N)=O)NC(=O)[C@@H](NC(=O)[C@H](CCC(N)=O)NC(=O)[C@H](CCC(=O)O)NC(=O)[C@H](Cc1c[nH]c2ccccc12)NC(=O)[C@H](CC(N)=O)NC(=O)[C@H](Cc1ccccc1)NC(=O)[C@H](CC(=O)O)NC(=O)[C@H](CC(=O)O)NC(=O)CNC(=O)[C@H](CCC(=O)O)NC(=O)CNC(=O)[C@@H](N)CSC1CC(=O)N(CCC(=O)NC(COCc2cn(CCCNC(=O)CN3CCN(CC(=O)O)CCN(CC(=O)O)CCN(CC(=O)O)CC3)nn2)(COCc2cn(CCCNC(=O)CN3CCN(CC(=O)O)CCN(CC(=O)O)CCN(CC(=O)O)CC3)nn2)COCc2cn(CCCNC(=O)CN3CCN(CC(=O)O)CCN(CC(=O)O)CCN(CC(=O)O)CC3)nn2)C1=O)C(C)C)[C@@H](C)O)C(=O)N[C@H](C(=O)N[C@@H](CCCCN)C(=O)N1CCC[C@H]1C(=O)N[C@H](C(=O)N[C@@H](CO)C(=O)N[C@@H](CC(=O)O)C(=O)O)[C@@H](C)O)[C@@H](C)O (some centres unmarked) [SBK2-Tris-(Gd-DOTA)3] (H-C(X1)GEGDDFNWEQVNTLTKPTSD-OH; N-terminus and C-terminus assumed)
- increase in tumor CNR over scrambled Tris-(Gd-DOTA)3 or ProHance ([2]; 15 to 45 minutes post-injection, 0.1 mmol Gd/kg intravenous, P<0.001): ~55%
- tumor CNR greater than the scrambled Tris-(Gd-DOTA)3 tumor CNR ([2]; 60 to 90 minutes, 0.1 mmol Gd/kg intravenous, P<0.001): approximately 53%
- increase in tumor CNR compared with ProHance ([2]; 60 to 120 minutes post-injection, 0.1 mmol Gd/kg intravenous, P<0.001): greater than 110%
- contrast enhancement compared with ProHance alone ([2]; mouse, in vivo): significantly higher
- Gd concentration in tumor at 60 minutes ([1]; 0.2 mmol Gd/kg): remains at near peak levels
- retention judged from slope of mean tumor normalized T1 values ([1]; 0.2 mmol Gd/kg, measured every 2.5 minutes for 62.5 minutes): highest retention
- distribution of T1 changes in the tumor ([1]; 30 minutes and 60 minutes, larger tumors): uniformly distributed throughout the tumor
- time the agent remains in the tumor ([1]; compared with non-specific molecular imaging agents): 1 h
- non-specific uptake compared with scrambled-Tris-(Gd-DOTA)3 ([1]; mouse, in vivo): nearly identical non-specific uptake
- concentration accumulated in tumor relative to scrambled-Tris-(Gd-DOTA)3 ([1]; tumors containing the PTPμ fragment): about twice

Compound: C-GEGDDFNWEQVNTLTKPTSD [SBK2]
- retention time of the agent in the sample / glioblastoma ([2]; mouse, in vivo): up to two
- time contrast agent concentration remains at peak levels ([1]; mouse, in vivo): at least sixty

Compound: CC(O)CN1CCN(CC(=O)[O-])CCN(CC(=O)[O-])CCN(CC(=O)[O-])CC1.[Gd+3] (centres unmarked) [Prohance™, gadoteridol, reference compound]
- time after peak within which contrast agent concentration begins to diminish ([1]; mouse, in vivo): thirty

Second part, led by results:

- time after peak within which contrast agent concentration begins to diminish ([1]; mouse, in vivo): thirty
Compound: C-GFTQPETGTDNDLWSVDNEK [scrambled, reference compound]

- time after peak within which contrast agent concentration begins to diminish ([1]; mouse, in vivo): thirty
Compound: COCCNC(=O)CN(CCN(CCN(CC(=O)[O-])CC(=O)NCCOC)CC(=O)[O-])CC(=O)[O-].[Gd+3] [Optimark™, gadoversetamide]
- time of peak enhancement in the tumors (mean normalized T1) ([3]; 0.1 mmol/kg dose): 5 min
- change in normalized T1 values ([3]; 0.1 mmol/kg dose, 5 minutes): modest decrease
- distinction between T1 value of normal brain and tumor ([3]; 0.1 mmol/kg dose, 30 minutes): no distinction
- time of peak contrast following the injection ([3]; T1-weighted FLASH images): five
- time of peak contrast following the injection ([3]; snapshot GRE images, T1 maps, Gd concentration maps): two and a half
- time of peak enhancement in the tumors (mean normalized T1) ([3]; 0.2 mmol/kg dose): 5 min
- change in normalized T1 values compared to 0.1 mmol/kg ([3]; 0.2 mmol/kg dose, 5 minutes): larger decrease
- distinction between normalized T1 values of normal brain and tumor ([3]; 0.2 mmol/kg dose, 30 minutes): weak distinction
